Measurements reported in US20240024324A1, “KINASE INHIBITOR COMBINATIONS FOR CANCER TREATMENT” (Merck Patent GmbH, priority 2020, published 2024).

Experiments:
GSC272 [1] = assay: Orthotopic GSC xenograft model; type: in vivo, mice
Description: (§1) The in vivo effects of M2698 and pimasertib, alone and in combination, were assessed in the GSC models after orthotopic implantation into mice. Treatment duration and time of euthanasia post-implantation was 5-10 weeks. Endpoints were expression of PD markers pS6 and pERK, proliferation marker Ki67, apoptosis as measured by TUNEL, tumor volume and survival.

GSC11 [2] = assay: Orthotopic GSC xenograft model; type: in vivo, mice
Description: as §1

GSC6-27 [3] = assay: Orthotopic GSC xenograft model; type: in vivo, mice
Description: as §1

GSC20 [4] = assay: Orthotopic GSC xenograft model; type: in vivo, mice
Description: as §1

GSC17 [5] = assay: Orthotopic GSC xenograft model; type: in vivo, mice
Description: as §1

GSC231 [6] = assay: Orthotopic GSC xenograft model; type: in vivo, mice
Description: as §1

GSC7-2 [7] = assay: Orthotopic GSC xenograft model; type: in vivo, mice
Description: as §1

[8] = in vivo; cited from earlier work
GSC272 [9] = assay: GSC lines: sensitivity in vitro (IC50); type: cell-based; settings: GSC272 line in vitro
Description: FIG. 1: In vitro analyses in GSC lines. (A) Western blot analysis of protein expression; (B) IC50 of […]; (C) IC50 of pimasertib; and (D) apoptotic GSC11, GSC7-2, and GSC17 cells after treatment with […], pimasertib, or […]+pimasertib combination. Single agents were tested at their IC50; half the IC50 of each compound was used for the combination. In vitro IC50 data were used to select GSC lines for in vivo studies; […] All GSC lines expressed Akt. Relatively high pAkt expression in GSC17, GSC7-2, GSC231, GSC11, GSC20, GSC6-27, and GSC8-11 lines compared with GSC272 and GSC267 (FIG. 1A). […] (FIG. 1B).

GSC11 [10] = assay: GSC lines: sensitivity in vitro (IC50); type: cell-based
Description: (§2) FIG. 1: In vitro analyses in GSC lines. (A) Western blot analysis of protein expression; (B) IC50 of M2698; (C) IC50 of pimasertib; and (D) apoptotic GSC11, GSC7-2, and GSC17 cells after treatment with M2698, pimasertib, or M2698+pimasertib combination. Single agents were tested at their IC50; half the IC50 of each compound was used for the combination.
(§3) All GSC lines expressed Akt. Relatively high pAkt expression in GSC17, GSC7-2, GSC231, GSC11, GSC20, GSC6-27, and GSC8-11 lines compared with GSC272 and GSC267 (FIG. 1A).

GSC6-27 [11] = assay: GSC lines: sensitivity in vitro (IC50); type: cell-based; settings: GSC6-27 line in vitro
Description: as §2, §3

GSC20 [12] = assay: GSC lines: sensitivity in vitro (IC50); type: cell-based
Description: as §2, §3

GSC17 [13] = assay: GSC lines: sensitivity in vitro (IC50); type: cell-based
Description: as §2, §3

GSC231 [14] = assay: GSC lines: sensitivity in vitro (IC50); type: cell-based; settings: GSC231 line in vitro
Description: as §2, §3

GSC7-2 [15] = assay: GSC lines: sensitivity in vitro (IC50); type: cell-based
Description: as §2, §3

GSC11 [16] = assay: Induction of apoptosis in GSC lines in vitro; type: cell-based
Description: (§4) FIG. 1: In vitro analyses in GSC lines. (A) Western blot analysis of protein expression; (B) IC50 of M2698; (C) IC50 of pimasertib; and (D) apoptotic GSC11, GSC7-2, and GSC17 cells after treatment with M2698, pimasertib, or M2698+pimasertib combination. […]
(§5) Induction of apoptosis by M2698, pimasertib, and the combination was measured in three of five GSC lines that were sensitive to M2698 in vitro.

GSC17 [17] = assay: Induction of apoptosis in GSC lines in vitro; type: cell-based
Description: as §4, §5

GSC7-2 [18] = assay: Induction of apoptosis in GSC lines in vitro; type: cell-based
Description: as §4, §5

Colorectal Cancer PDX = assay: 75 PDX models of colorectal cancer; type: in vivo; settings: CRC PDX; M2698 25 mg/kg po qd, Pimasertib 20 mg/kg po qd, Cetuximab 20 mg/kg ip q2w
Source text: Of the 75 models, 25 were wild type, 25 KRas mutant, and 25 BRaf mutant.

[19] = tested on: Her2+/HR− Breast Cancer PDX; assay: PDX models of Her2+/HR- breast cancer; type: in vivo
[20] = tested on: Non-Small Lung Cancer (NSCLC) Brain Metastases PDX; assay: PDX models of NSCLC brain metastases; type: in vivo
[21] = tested on: human cholangiocarcinoma cancer PDX; assay: PDX models of cholangiocarcinoma; type: in vivo, mice; settings: 20 mg/kg each agent QD PO
Source text: The objective of this experiment was to evaluate the antitumor activity of M2698 alone and in combination with Pimasertib in a panel of 13 Patient-Derived Xenograft models representing human cholangiocarcinoma cancer derived from Chinese patients in immune-deficient mice.
Vehicle: 0.5% Methocel/0.25% Tween20 in Milli-Q Water. Tumors from three untreated mice were collected as satellite samples when reached a tumor volume between 300-500 mm3.

SMILES: O=C(NCC(O)CO)c1ccncc1Nc1ccc(I)cc1F (stereo not drawn) [pimasertib, N-(2,3-dihydroxy-propyl)-3-(2-fluoro-4-iodo-phenylamino)-isonicotinamide, reference compound]
- pERK expression in orthotopic tumor (GSC272 [1]; GSC272, PD marker): significantly reduced pERK
- pS6 expression in orthotopic tumor (GSC272 [1]; GSC272, PD marker): significantly reduced pS6
- cross-pathway reduction of pS6, trend over time (GSC272 [1]; GSC272, from 7.5-10 weeks): diminished
- median survival (GSC272 [1]; GSC272 orthotopic, vs vehicle): no significant effects on survival
- tumor volume / tumor growth (GSC272 [1]; GSC272 orthotopic, vs vehicle): significant tumor growth inhibition
- pERK expression in orthotopic tumor (GSC11 [2]; GSC11, PD marker): significantly reduced pERK
- median survival (GSC11 [2]; GSC11 orthotopic, vs vehicle): no significant effects on survival
- pERK expression in orthotopic tumor (GSC6-27 [3]; GSC6-27, PD marker): significantly reduced pERK
- median survival (GSC6-27 [3]; GSC6-27 orthotopic, vs vehicle): no significant effects on survival
- tumor volume / tumor growth (GSC6-27 [3]; GSC6-27 orthotopic, vs vehicle): significant tumor growth inhibition
- pERK expression in orthotopic tumor (GSC20 [4]; GSC20, PD marker): significant effects of pimasertib treatment on pERK protein were not seen
- median survival (GSC20 [4]; GSC20 orthotopic, vs vehicle): no significant effects on survival
- tumor volume / tumor growth (GSC20 [4]; GSC20 orthotopic, vs vehicle): had not responded
- pERK expression in orthotopic tumor (GSC17 [5]; GSC17, PD marker): significantly reduced pERK
- median survival (GSC17 [5]; GSC17 orthotopic, vs vehicle): no significant effects on survival
- tumor volume / tumor growth (GSC17 [5]; GSC17 orthotopic, vs vehicle): not affected
- proliferation (Ki67 by immunohistochemistry) (GSC17 [5]; GSC17 tumor sections, compared to vehicle): significantly reduced proliferation
- pERK expression in orthotopic tumor (GSC231 [6]; GSC231, PD marker): significantly reduced pERK
- pS6 expression in orthotopic tumor (GSC231 [6]; GSC231, PD marker): significantly reduced pS6
- cross-pathway reduction of pS6, trend over time (GSC231 [6]; GSC231, from 7.5-10 weeks): diminished
- median survival (GSC231 [6]; GSC231 orthotopic, vs vehicle): no significant effects on survival
- tumor volume / tumor growth (GSC231 [6]; GSC231 orthotopic, vs vehicle): trend towards a significant response
- pERK expression in orthotopic tumor (GSC7-2 [7]; GSC7-2, PD marker): significantly reduced pERK
- median survival (GSC7-2 [7]; GSC7-2 orthotopic, vs vehicle): no significant effects on survival
- tumor volume / tumor growth (GSC7-2 [7]; GSC7-2 orthotopic, vs vehicle): significant tumor growth inhibition
- number of apoptotic cells/field (GSC7-2 [7]; GSC7-2 xenografts, after 10 weeks): 65.00±60.80 cells/field
- apoptosis in xenografts vs control (GSC7-2 [7]; GSC7-2 xenografts, at 7.5 weeks): Neither M2698, pimasertib, nor combination treatment significantly affected apoptosis
- blood-brain barrier penetration [8]: brain-penetrant
- IC50 (GSC272 [9]): > 2 µM
- sensitivity in vitro (GSC11 [10]; GSC11 line): most sensitive
- IC50 (GSC11 [10]; GSC11 line in vitro): < 2 µM
- IC50 (GSC6-27 [11]): > 2 µM
- sensitivity in vitro (GSC20 [12]; GSC20 line): insensitivity
- IC50 (GSC20 [12]; GSC20 line in vitro): > 2 µM
- sensitivity in vitro (GSC17 [13]; GSC17 line): moderately sensitive
- IC50 (GSC17 [13]; GSC17 line in vitro): < 2 µM
- IC50 (GSC231 [14]): < 2 µM
- sensitivity in vitro (GSC7-2 [15]; GSC7-2 line): not sensitive
- IC50 (GSC7-2 [15]; GSC7-2 line in vitro): > 2 µM
- apoptotic percentage (GSC11 [16]; GSC11, monotherapy at 2×IC50): 62%
- apoptotic percentage (GSC11 [16]; GSC11, monotherapy at the IC50): 56%
- apoptotic percentage (GSC17 [17]; GSC17, monotherapy at 2×IC50): 12%
- apoptotic percentage (GSC17 [17]; GSC17, monotherapy at the IC50): 11%
- apoptotic percentage (GSC7-2 [18]; GSC7-2, monotherapy at 2×IC50): 17%
- apoptotic percentage (GSC7-2 [18]; GSC7-2, monotherapy at the IC50): 13%
- tumor control rate (TCR) (Colorectal Cancer PDX): 32%
- tumor control rate (TCR), models controlled/models (Colorectal Cancer PDX): 24/74
- tumor volume over the duration of the experiment [19]: stasis of the tumor volume
- tumor control rate (TCR) [20]: 16%
- tumor stasis, number of tumor samples [21]: 1/12
- tumor stasis, share of tumor samples [21]: 8%
